From patent US11730714B2, “Compounds for the treatment of neuromuscular disorders” (NMD PHARMA A/S, priority 2017, dated 2023)

Legend:
Assay type in all cases: cell-based
isolated rat muscle = assay: Measurement of force in an in vitro model: isolated rat soleus nerve-muscle preparation, 115 nM tubocurarine; conditions: 50 μM compound after 90 min in tubocurarine
Protocol: FIGS. 12A-12B. […] Force traces from a representative muscle stimulated to contract in 1) control condition before addition of neuromuscular blocking agent, 2) the force response to stimulation after 90 minutes incubation with Tubocurarine. […] The traces presented in FIG. 12A (1, 2, 3), correspond to the dotted lines in FIG. 12B, respectively.
Recovery of force is quantified as the percentage of the force prior to tubocurarine that is recovered by the compound.
The current invention relates to compounds that inhibit CIC-1 ion channels and increase muscle excitability and thereby improve muscle function in clinical conditions where muscle activation is failing. Such conditions result in loss of contractile function of skeletal muscle, weakness and excessive fatigue. […]
Experimentally, soleus muscles from 4-5 wk old rats were isolated with the motor nerve remaining attached. […] Stimulation of the motor nerve led to activation of the muscle fibres and ensuing force production that was recorded.
After mounting the nerve-muscle preparation in the experimental setup, the contractile function of the muscle was initially assessed under the control conditions (FIG. 2A). […] To quantify the ability of the compound to restore force the percentage of the initial force that was restored was determined after 40 mins of compound exposure (FIG. 2B) and the point increase is reported in Table 8.

[1] = test system: isolated rat soleus muscles; assay: Recovery of nerve-stimulated force in isolated rat soleus muscles exposed to sub-maximal tubocurarine; conditions: 9-AC added after tubocurarine; nerve stimulation by suction electrode, 60 Hz
Protocol: (§1) Experiments were performed using rat soleus muscles from either young (4-wk-old) or adult Wistar rats (12-14-week-old). Animal handling, killing and isolation of muscle is described elsewhere All experiments were performed using normal Krebs-Ringer bicarbonate solution (NKR). In solutions with elevated Mg^2+, MgCl2 was added to NKR-solution causing minor increases in osmolarity and ionic strength. In solutions with elevated K^+, 4 mM NaCl was replaced by 4 mM KCl in the NKR.
In all contraction experiments, isometric force production was determined and force produced during contractions was quantified by measuring the integral of the force response (AUC). Stimulation and force recordings have been described elsewhere. […] In these latter experiments, extracellular recordings of action potentials (M-waves) could be measured without temporal overlap with stimulation artefacts.
(§2) The aim was to find compounds that by inhibition of CIC-1 channels can recover nerve-stimulated force under conditions of fatigue including conditions where fatigue is caused by compromised neuromuscular transmission. Neuromuscular transmission dysfunction can develop because of both pre- and/or post-synaptic complications in connection with a disorder or as part of neuromuscular blockade during/after surgery. In the initial series of drug testing, experiments were performed with isolated muscles in the presence of sub-maximal ACh receptor antagonist tubocurarine. Since the inclusion of tubocurarine caused a partial loss of neuromuscular transmission this experiment mimics the conditions in myasthenia gravis and neuromuscular blockade. To mimic conditions with pre-synaptic complication (Lambert Eaton syndrome, motor neuron disorder, polyneuropathy) the intact nerve-muscle preparations were incubated at elevated extracellular Mg^2+, which is known to suppress release of ACh from nerve terminals of motor neurons.
The experiments also illustrate that field stimulation of the entire nerve-muscle preparation selectively activates the motor nerve when short-duration pulses (0.02 vs 0.2 ms) were used. In FIG. 1A the preparation was stimulated either via field stimulation or via nerve-stimulation using a suction electrode. With the suction electrode only the nerve could be stimulated. When exposed to a submaximal concentration of the ACh receptor antagonist tubocurarine (0.2 μM) a clear drop in peak force and a further decline (or fade) in force during the stimulation developed. This drop in force clearly reflected compromised neuromuscular transmission, as the decline in peak force and fading were not seen with direct stimulation of the muscle. […] Thus, loss of M-wave and force with tubocurarine reflected partial blockade of neuromuscular function. Such fading of force and M-waves during stimulation represent clinical hallmarks of both myasthenia gravis and neuromuscular blockade in connection with surgery. In FIG. 1B, observations with normal (0.2 ms) and short-duration (0.02 ms) pulses have been compared. It can be seen that only with short-duration pulses did tubocurarine cause a decline in peak force and fading (FIG. 1B). This confirms that short-duration pulses in field stimulation could be used as specific nerve-stimulation. […] Elevated extracellular Mg^2+ could thus be used to partially block neuromuscular transmission and thus be used as a model of conditions with compromised pre-synaptic function (Lambert Eaton syndrome, amyotrophic lateral sclerosis, spinal muscular atrophy). […]

[2] = test system: isolated rat soleus muscles; assay: Recovery of nerve-stimulated force in isolated rat soleus muscles exposed to 3.5 mM Mg2+; conditions: 9-AC added at 3.5 mM Mg2+; nerve stimulation by suction electrode, 60 Hz
Protocol: as §1
as §2, with “Since the inclusion of tubocurarine caused a partial loss of neuromuscular transmission this experiment mimics the conditions in myasthenia gravis and neuromuscular blockade.” left out

| SMILES | recovery of force (in words) (isolated rat muscle) | recovery of force and M-wave signal [1] | recovery of force and M-wave signal [2] |
| --- | --- | --- | --- |
| O=C(O)[C@H](CF)Oc1ccc(Br)cc1F [Compound A-19, (2R)-2-(4-bromo-2-fluorophenoxy)-3-fluoropropanoic acid] | subsequently recovered |  |  |
| O=C(O)c1c2ccccc2cc2ccccc12 [Compound 9-AC, 9-anthracenecarboxylic acid, reference compound] |  | marked recovery of both force and M-wave signal | marked recovery of both force and M-wave signal |
